US20110039721A1, “METHOD FOR PREDICTION ABOUT CARCINOGENICITY OF SUBSTANCE IN RODENT” (Chemicals Evaluation and Research Institute, priority 2007, published 2011)
Read-outs that look alike come from different tables or passages of the source.

Experiments:
[1] = test system: mRNA expressed from the genes (A) to (D) in rat liver; assay: Behavior of genes (mRNA expression level, oligo-DNA microarray) in rat liver after 28-day oral administration; format: in vivo; conditions: mRNA vs vehicle control group; for Behavior of gene caused by administration of chemical substance, Gene No. 4846 / Behavior of gene caused by administration of chemical substance, Gene No. 2026 / Behavior of gene caused by administration of chemical substance, Gene No. 4218 / Behavior of gene caused by administration of chemical substance, Gene No. 6182 / Behavior of gene caused by administration of chemical substance, Gene No. 5600: gene group (A); for Behavior of gene caused by administration of chemical substance, Gene No. 4846: Unigene No. Rn.144554; for Behavior of gene caused by administration of chemical substance, Gene No. 2026 / Behavior of gene caused by administration of chemical substance, Gene No. 4218: Unigene No. Rn.167075; for Behavior of gene caused by administration of chemical substance, Gene No. 6182: Unigene No. Rn.5834; for Behavior of gene caused by administration of chemical substance, Gene No. 5600: Unigene No. Rn.9836; for Behavior of gene caused by administration of chemical substance, Gene No. 1494 / Behavior of gene caused by administration of chemical substance, Gene No. 2045 / Behavior of gene caused by administration of chemical substance, Gene No. 2203: gene group (B); for Behavior of gene caused by administration of chemical substance, Gene No. 1494: Unigene No. Rn.1430; for Behavior of gene caused by administration of chemical substance, Gene No. 2045: Unigene No. Rn.19329; for Behavior of gene caused by administration of chemical substance, Gene No. 2203: Unigene No. Rn.21240; for Behavior of gene caused by administration of chemical substance, Gene No. 533 / Behavior of gene caused by administration of chemical substance, Gene No. 725 / Behavior of gene caused by administration of chemical substance, Gene No. 1163 / Behavior of gene caused by administration of chemical substance, Gene No. 4973 / Behavior of gene caused by administration of chemical substance, Gene No. 4095 / Behavior of gene caused by administration of chemical substance, Gene No. 1334 / Behavior of gene caused by administration of chemical substance, Gene No. 6620 / Behavior of gene caused by administration of chemical substance, Gene No. 6303 / Behavior of gene caused by administration of chemical substance, Gene No. 5878 / Behavior of gene caused by administration of chemical substance, Gene No. 1131 / Behavior of gene caused by administration of chemical substance, Gene No. 1562 / Behavior of gene caused by administration of chemical substance, Gene No. 1741 / Behavior of gene caused by administration of chemical substance, Gene No. 893 / Behavior of gene caused by administration of chemical substance, Gene No. 6026 / Behavior of gene caused by administration of chemical substance, Gene No. 154 / Behavior of gene caused by administration of chemical substance, Gene No. 1993 / Behavior of gene caused by administration of chemical substance, Gene No. 813 / Behavior of gene caused by administration of chemical substance, Gene No. 2494 / Behavior of gene caused by administration of chemical substance, Gene No. 2546 / Behavior of gene caused by administration of chemical substance, Gene No. 3776 / Behavior of gene caused by administration of chemical substance, Gene No. 3929 / Behavior of gene caused by administration of chemical substance, Gene No. 1119 / Behavior of gene caused by administration of chemical substance, Gene No. 6742 / Behavior of gene caused by administration of chemical substance, Gene No. 5634: gene group (C); for Behavior of gene caused by administration of chemical substance, Gene No. 533: Unigene No. Rn.106184; for Behavior of gene caused by administration of chemical substance, Gene No. 725: Unigene No. Rn.108075; for Behavior of gene caused by administration of chemical substance, Gene No. 1163: Unigene No. Rn.11766; for Behavior of gene caused by administration of chemical substance, Gene No. 4973: Unigene No. Rn.118529; for Behavior of gene caused by administration of chemical substance, Gene No. 4095: Unigene No. Rn.119024; for Behavior of gene caused by administration of chemical substance, Gene No. 1334 / Behavior of gene caused by administration of chemical substance, Gene No. 6620: Unigene No. Rn.120914; for Behavior of gene caused by administration of chemical substance, Gene No. 6303: Unigene No. Rn.123063; for Behavior of gene caused by administration of chemical substance, Gene No. 5878: Unigene No. Rn.143213; for Behavior of gene caused by administration of chemical substance, Gene No. 1131: Unigene No. Rn.144946; for Behavior of gene caused by administration of chemical substance, Gene No. 1562: Unigene No. Rn.14744; for Behavior of gene caused by administration of chemical substance, Gene No. 1741: Unigene No. Rn.1647; for Behavior of gene caused by administration of chemical substance, Gene No. 893: Unigene No. Rn.164817; for Behavior of gene caused by administration of chemical substance, Gene No. 6026: Unigene No. Rn.167685; for Behavior of gene caused by administration of chemical substance, Gene No. 154: Unigene No. Rn.185941; for Behavior of gene caused by administration of chemical substance, Gene No. 1993: Unigene No. Rn.18728; for Behavior of gene caused by administration of chemical substance, Gene No. 813: Unigene No. Rn.201760; for Behavior of gene caused by administration of chemical substance, Gene No. 2494: Unigene No. Rn.23969; for Behavior of gene caused by administration of chemical substance, Gene No. 2546: Unigene No. Rn.24561; for Behavior of gene caused by administration of chemical substance, Gene No. 3776: Unigene No. Rn.43232; for Behavior of gene caused by administration of chemical substance, Gene No. 3929: Unigene No. Rn.4620; for Behavior of gene caused by administration of chemical substance, Gene No. 1119: Unigene No. Rn.9757; for Behavior of gene caused by administration of chemical substance, Gene No. 6742: Unigene No. Rn.9779; for Behavior of gene caused by administration of chemical substance, Gene No. 5634: Unigene No. Rn.9862; for Behavior of gene caused by administration of chemical substance, Gene No. 5726: gene group (D), Unigene No. Rn.9939
How it was run: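 Groups of four male F344 SPF rats aged 5 weeks are gavaged once a day for 28 days with test chemical in solvent or with solvent alone at equal volume. Total RNA comes from liver taken on day 28. Fold change of 1.5 or 1/1.5 versus control, directionally consistent, defines significance.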

liver = conditions: cited from earlier work
rodent = conditions: cited from earlier work
[2] = classification of the substance (M+/M−); cited from earlier work
[3] = classification of the substance (Cr+/Cr−)
[4] = classification of the substance (C+/C−)

Compound | Behavior of gene caused by administration of chemical substance, Gene No. 4846 [1] | Behavior of gene caused by administration of chemical substance, Gene No. 2026 [1] | Behavior of gene caused by administration of chemical substance, Gene No. 4218 [1] | Behavior of gene caused by administration of chemical substance, Gene No. 6182 [1] | Behavior of gene caused by administration of chemical substance, Gene No. 5600 [1] | Behavior of gene caused by administration of chemical substance, Gene No. 1494 [1] | Behavior of gene caused by administration of chemical substance, Gene No. 2045 [1] | Behavior of gene caused by administration of chemical substance, Gene No. 2203 [1] | Behavior of gene caused by administration of chemical substance, Gene No. 533 [1] | Behavior of gene caused by administration of chemical substance, Gene No. 725 [1] | Behavior of gene caused by administration of chemical substance, Gene No. 1163 [1] | Behavior of gene caused by administration of chemical substance, Gene No. 4973 [1] | Behavior of gene caused by administration of chemical substance, Gene No. 4095 [1] | Behavior of gene caused by administration of chemical substance, Gene No. 1334 [1] | Behavior of gene caused by administration of chemical substance, Gene No. 6620 [1] | Behavior of gene caused by administration of chemical substance, Gene No. 6303 [1] | Behavior of gene caused by administration of chemical substance, Gene No. 5878 [1] | Behavior of gene caused by administration of chemical substance, Gene No. 1131 [1] | Behavior of gene caused by administration of chemical substance, Gene No. 1562 [1] | Behavior of gene caused by administration of chemical substance, Gene No. 1741 [1] | further results
Cn1c(N)nc2ncc(-c3ccccc3)cc21 [TS045, 2-amino-1-methyl-6-phenylimidazo[4,5-b]-pyridine] | − | − | − | − | − | − | + | + | − | − | − | − | − | − | − | − | − | − | − | − | Behavior of gene caused by administration of chemical substance, Gene No. 893 [1]: −; Behavior of gene caused by administration of chemical substance, Gene No. 6026 [1]: −; Behavior of gene caused by administration of chemical substance, Gene No. 154 [1]: −; Behavior of gene caused by administration of chemical substance, Gene No. 1993 [1]: −; Behavior of gene caused by administration of chemical substance, Gene No. 813 [1]: −; Behavior of gene caused by administration of chemical substance, Gene No. 2494 [1]: +; Behavior of gene caused by administration of chemical substance, Gene No. 2546 [1]: −; Behavior of gene caused by administration of chemical substance, Gene No. 3776 [1]: −; Behavior of gene caused by administration of chemical substance, Gene No. 3929 [1]: −; Behavior of gene caused by administration of chemical substance, Gene No. 1119 [1]: −; Behavior of gene caused by administration of chemical substance, Gene No. 6742 [1]: −; Behavior of gene caused by administration of chemical substance, Gene No. 5634 [1]: −; Behavior of gene caused by administration of chemical substance, Gene No. 5726 [1]: +; Liver carcinogenicity (liver; [3]): Cr−; Carcinogenicity (rodent; [4]): C+; Mutagenicity by Ames test [2]: M+
Cc1c2ccccc2c(C)c2c1ccc1ccccc12 [TS047, 7,12-Dimethylbenz [a]anthracene] | − | − | − | − | − | − | − | − | − | + | + | − | − | − | − | − | − | − | − | − | Behavior of gene caused by administration of chemical substance, Gene No. 893 [1]: −; Behavior of gene caused by administration of chemical substance, Gene No. 6026 [1]: −; Behavior of gene caused by administration of chemical substance, Gene No. 154 [1]: −; Behavior of gene caused by administration of chemical substance, Gene No. 1993 [1]: −; Behavior of gene caused by administration of chemical substance, Gene No. 813 [1]: −; Behavior of gene caused by administration of chemical substance, Gene No. 2494 [1]: −; Behavior of gene caused by administration of chemical substance, Gene No. 2546 [1]: −; Behavior of gene caused by administration of chemical substance, Gene No. 3776 [1]: −; Behavior of gene caused by administration of chemical substance, Gene No. 3929 [1]: −; Behavior of gene caused by administration of chemical substance, Gene No. 1119 [1]: −; Behavior of gene caused by administration of chemical substance, Gene No. 6742 [1]: −; Behavior of gene caused by administration of chemical substance, Gene No. 5634 [1]: −; Behavior of gene caused by administration of chemical substance, Gene No. 5726 [1]: +; Liver carcinogenicity (liver; in vivo): Cr−; Carcinogenicity (rodent; in vivo): C+; Mutagenicity by Ames test [2]: M+
Cc1ccc2cc3c(ccc4ccccc43)c3c2c1CC3 [TS048, 3-Methylcholanthrene] | − | + | − | − | − | − | − | − | − | − | − | − | − | − | − | − | − | − | − | − | Behavior of gene caused by administration of chemical substance, Gene No. 893 [1]: −; Behavior of gene caused by administration of chemical substance, Gene No. 6026 [1]: −; Behavior of gene caused by administration of chemical substance, Gene No. 154 [1]: −; Behavior of gene caused by administration of chemical substance, Gene No. 1993 [1]: −; Behavior of gene caused by administration of chemical substance, Gene No. 813 [1]: −; Behavior of gene caused by administration of chemical substance, Gene No. 2494 [1]: −; Behavior of gene caused by administration of chemical substance, Gene No. 2546 [1]: −; Behavior of gene caused by administration of chemical substance, Gene No. 3776 [1]: −; Behavior of gene caused by administration of chemical substance, Gene No. 3929 [1]: −; Behavior of gene caused by administration of chemical substance, Gene No. 1119 [1]: −; Behavior of gene caused by administration of chemical substance, Gene No. 6742 [1]: −; Behavior of gene caused by administration of chemical substance, Gene No. 5634 [1]: +; Behavior of gene caused by administration of chemical substance, Gene No. 5726 [1]: +; Liver carcinogenicity (liver; [3]): Cr−; Carcinogenicity (rodent; [4]): C+; Mutagenicity by Ames test [2]: M+
